This is an account of results in patent US20250205264A1, “METHODS OF USING AVERMECTIN COMPOSITIONS FOR THE TREATMENT OF SPASTICITY AND DOSING REGIMENS” (priority 2022, published 2025).

The test deals with pentylenetetrazol (PTZ)-induced ictal brain activity. As to the kind of experiment: Modulation of PTZ-induced seizures, BOLD fMRI. The class given is in vivo, male Wistar rats. The settings on record: for PTZ-induced brain activity: positive control compounds, all tested brain regions, high statistical significance. On the procedure: Functional MRI (fMRI) was performed using a high-field preclinical MRI system in anesthetized male Wistar rats in order to determine the modulation of pentylenetetrazol (PTZ)-induced ictal brain activity by chronic treatment with test compound (TC). […] Vehicle and 3 mg/kg Alprazolam served as controls (see, Table 11) Seizures were induced with PTZ in each experimental group. A schematic of the study design can be seen in FIG. 6. Various physiological parameters were also measured throughout the experiment including body weight, CO2 levels, blood pH, and heart rate. […] Vehicle and 3 mg/kg Alprazolam served as controls (see, Table 12).

As for `Cc1nnc2n1-c1ccc(Cl)cc1C(c1ccccc1)=NC2` [Alprazolam], the PTZ-induced brain activity entry was “effectively cancelled PTZ-induced brain activity”. Further, the “Statistical significances of BOLD fMRI AUC, Vehicle vs. Alprazolam (brain regions)” value (FIG. 7A, 3 mg/kg+PTZ, two-way ANOVA) is on record as “in all”.
Consider `CN1C(=O)CN=C(c2ccccc2)c2cc(Cl)ccc21` [Diazepam], for which the PTZ-induced brain activity entry is “effectively cancelled PTZ-induced brain activity”.
